In patent US20240239816A1, “BORONO-PHENYLALANINE DERIVATIVE” (STELLA PHARMA CORPORATION, priority 2021, published 2024):

Key:
[1] = test system: human LAT1 and LAT2 highly expressing HEK 293 cell lines; assay: Evaluation of LAT1 and LAT2-selective uptake; format: cell-based; settings: (uptake in LAT1 cells / L-BPA uptake in LAT1 cells)/(uptake in LAT2 cells / L-BPA uptake in LAT2 cells); substrate concentration 0.1 mM; relative to L-BPA on the same day
Procedure: HEK 293 cells that stably highly express human LAT1 and LAT2 respectively were prepared according to the method described in the article of Khunweeraphong, N et al. (Journal of Pharmacology Science, 2012, vol. 119, pp 368-380). A shuttle vector DNA (LAT1: EX-H 4509-M02, LAT2: EX-U0514-M02, manufactured by GeneCopoeia) having ampicillin and neomycin resistance markers and having full-length cDNA of human LAT1 or LAT2 inserted under the promoter of cytomegalovirus (CMV) was constructed. This vector was transfected into HEK 293 cells by a method using Lipofectamine (registered trademark) 2000 (Invitrogen) in accordance with the manufacturer's instructions. Thereafter, the stably expressing cell clone of the transgene was selected by the limiting dilution method in the presence of 0.9 mg/mL Geneticin (registered trademark), and a cell clone in which the uptake of L-boronophenylalanine (L-BPA) was enhanced by about 2 to about 5 times as compared with HEK 293 cells before transfection was obtained. This cell was passaged and used for evaluation of LAT1 and LAT2-selective uptake.
As a method for evaluating cell uptake, the same method as in the article of Khunweeraphong, N et al. (Journal of Pharmacology Science, 2012, vol. 119, pp 368-380) was used. Each of the cells obtained in (1) was used for evaluation. Radioactive isotopes were not used, a substrate concentration was 0.1 mM, and 2 mM BCH (2-amino-2-norbonanecarboxylic acid) was used as an LAT1 and LAT2 inhibitor. The reacted cells were collected with 0.05% Tween 20 and the concentration of the 4-borono-phenylalanine derivative in the cell fluid was determined. Quantification of the 4-borono-phenylalanine derivative in cells was performed in accordance with the method described in the article of Hattori, Y, et al. (Sensors 2017, 17, 2436), using 2-(2-hydroxyphenyl)pyridine (boron sensor 5) as a boron sensor. In the evaluation of cell uptake, in consideration of variations between experiments, the cell uptake was evaluated as a value (LAT1 selectivity) relative to the uptake of L-BPA as a comparative object performed on the same day.
LAT1 selectivity=(quantitative value of uptake of the compound in LAT1 cells/quantitative value of uptake of control L-BPA in LAT1 cells)/(quantitative value of uptake of the compound in LAT2 cells/quantitative value of uptake of control L-BPA in LAT2 cells)

[2] = Single dose toxicity test; format: in vivo; settings: single tail vein injection, 250, 500 and 1000 mg/kg, 5 animals per group, observation period 8 days
Procedure: In a beaker, 17.6 mL of 1 mol/L NaOH was put, and 24 mL of water for injection was further added and mixed. To this was added 2.52 g of D-sorbitol. After confirming complete dissolution, 17.1 mL of 1 mol/L hydrochloric acid was added to adjust the pH to 7.4 to 7.8. The mixture was transferred to a measuring cylinder, the beaker was washed with water for injection, and the washing liquid was transferred to the measuring cylinder. This operation was repeated as much as possible, and the volume of the liquid in the measuring cylinder was increased to 80 mL while the beaker was washed. The mixture was filtration-sterilized with a filter (Millex GV, pore size: 0.22 μm, Merck, sterilized disposable product), affording a 3.15% D-sorbitol solution.
On the other hand, 10.1 mL of a 1 mol/L aqueous sodium hydroxide solution was put in a beaker, and 13.8 mL of water for injection was further added and mixed. To this were added 2.30 g of test substance and 1.45 g of D-sorbitol. After confirming complete dissolution, 1.36 mL of 1 mol/L hydrochloric acid was added to adjust the pH to 7.4 to 7.8. The mixture was transferred to a measuring cylinder, the beaker was washed with water for injection, and the washing liquid was transferred to the measuring cylinder. […]

SMILES | LAT1 selectivity [1] | change due to administration of the test substance (single dose toxicity) [2]
C[C@](N)(Cc1ccc(B(O)O)cc1F)C(=O)O [Example 1, (S)-2-amino-3-(4-borono-2-fluorophenyl)-2-methylpropanoic acid] | twice or more | no serious change due to the administration of the test substance was observed in any of the administration groups
C[C@@](N)(Cc1ccc(B(O)O)cc1F)C(=O)O [Example 2, (R)-2-Amino-3-(4-borono-2-fluorophenyl)-2-methylpropanoic acid] | twice or more | –
Cc1cc(B(O)O)ccc1C[C@](C)(N)C(=O)O [Example 3, (S)-2-Amino-3-(4-borono-2-methylphenyl)-2-methylpropanoic acid] | twice or more | –
Cc1cc(B(O)O)ccc1C[C@@](C)(N)C(=O)O [Example 4, (R)-2-Amino-3-(4-borono-2-methylphenyl)-2-methylpropanoic acid] | twice or more | –
C[C@](N)(Cc1ccc(B(O)O)cc1C(F)(F)F)C(=O)O [Example 5, (S)-2-Amino-3-(4-borono-2-(trifluoromethyl)phenyl)-2-methylpropanoic acid] | twice or more | –
C[C@@](N)(Cc1ccc(B(O)O)cc1C(F)(F)F)C(=O)O [Example 6, (R)-2-Amino-3-(4-borono-2-(trifluoromethyl)phenyl)-2-methylpropanoic acid] | twice or more | –
COc1cc(B(O)O)ccc1C[C@](C)(N)C(=O)O [Example 7, (S)-2-Amino-3-(4-borono-2-methoxyphenyl)-2-methylpropanoic acid] | twice or more | –
C[C@](N)(Cc1ccc(B(O)O)cc1Cl)C(=O)O [Example 9, (S)-2-Amino-3-(4-borono-2-chlorophenyl)-2-methylpropanoic acid] | twice or more | no serious change due to the administration of the test substance was observed in any of the administration groups
C[C@](N)(Cc1c(F)cc(B(O)O)cc1F)C(=O)O [Example 11, (S)-2-Amino-3-(4-borono-2,6-difluorophenyl)-2-methylpropanoic acid] | twice or more | –
C[C@](N)(Cc1cc(Cl)c(B(O)O)cc1F)C(=O)O [Example 13, (S)-2-Amino-3-(4-borono-5-chloro-2-fluorophenyl)-2-methylpropanoic acid] | twice or more | –
C[C@](N)(Cc1ccc(B(O)O)c(F)c1F)C(=O)O [Example 14, (S)-2-Amino-3-(4-borono-2,3-difluorophenyl)-2-methylpropanoic acid] | twice or more | –
C[C@](N)(Cc1ccc(B(O)O)c(F)c1)C(=O)O [Example 15, (S)-2-Amino-3-(4-borono-3-fluorophenyl)-2-methylpropanoic acid] | twice or more | –
C[C@@](N)(Cc1ccc(B(O)O)c(F)c1)C(=O)O [Example 16, (R)-2-Amino-3-(4-borono-3-fluorophenyl)-2-methylpropanoic acid] | twice or more | –
Cc1cc(C[C@](C)(N)C(=O)O)ccc1B(O)O [Example 17, (S)-2-Amino-3-(4-borono-3-methylphenyl)-2-methylpropanoic acid] | twice or more | –
C[C@](N)(Cc1cc(F)c(B(O)O)cc1Cl)C(=O)O [Example 29, (S)-2-Amino-3-(4-borono-2-chloro-5-fluorophenyl)-2-methylpropanoic acid] | twice or more | –
CSc1cc(B(O)O)ccc1C[C@](C)(N)C(=O)O [Example 34, (S)-2-Amino-3-(4-borono-2-(methylthio)phenyl)-2-methylpropanoic acid] | twice or more | –
C[C@](N)(Cc1ccc(B(O)O)cc1C(F)F)C(=O)O [Example 35, (S)-2-Amino-3-(4-borono-2-(difluoromethyl)phenyl)-2-methylpropanoic acid] | twice or more | –
C[C@@](N)(Cc1ccc(B(O)O)cc1C(F)F)C(=O)O [Example 36, (R)-2-Amino-3-(4-borono-2-(difluoromethyl)phenyl)-2-methylpropanoic acid] | twice or more | –
C[C@](N)(Cc1ccc(B(O)O)c(Cl)c1)C(=O)O [Example 37, (S)-2-Amino-3-(4-borono-3-chlorophenyl)-2-methylpropanoic acid] | twice or more | –
N[C@@H](Cc1ccc(B(O)O)cn1)C(=O)O [Example 44, (S)-2-Amino-3-(5-boronopyridin-2-yl)propanoic acid] | twice or more | –
Cc1cc(B(O)O)cnc1C[C@H](N)C(=O)O [Example 49, (S)-2-Amino-3-(5-borono-3-methylpyridin-2-yl)propanoic acid] | twice or more | –
N[C@@H](Cc1ncc(B(O)O)cc1Cl)C(=O)O [Example 50, (S)-2-Amino-3-(5-borono-3-chloropyridin-2-yl)propanoic acid] | twice or more | –
Cc1cc(C[C@H](N)C(=O)O)ncc1B(O)O [Example 51, (S)-2-Amino-3-(5-borono-4-methylpyridin-2-yl)propanoic acid] | twice or more | –
